Reference: patent US20040044008A1, “Use of therapeutic benzamide derivatives” (priority 2000, published 2004)
pIC50: −log10 of the molar value.

Test system: not given
Test: not given
Conditions: not given

Molecule | melting point [°C]
N#Cc1cc(CN2CCN(c3ccc(NC(=O)c4ccccc4-c4ccc(C(F)(F)F)cc4)cc3)CC2)ccc1F [Example 47, 4′-Trifluoromethyl-biphenyl-2-carboxylic acid [4-(4-(3-cyano-4-fluoro-benzyl)-piperazin-1-yl)-phenyl]-amide] | 168 to 170
O=C(Nc1ccc(N2CCN(Cc3ccc4c(c3)OCO4)CC2)cc1)c1ccccc1-c1ccc(C(F)(F)F)cc1 [Example 48, 4′-Trifluoromethyl-biphenyl-2-carboxylic acid [4-(4-(3,4-methylenedioxy-benzyl)-piperazin-1-yl)-phenyl]-amide] | 189 to 191
O=C(Nc1ccc(N2CCN(Cc3cccc([N+](=O)[O-])c3)CC2)cc1)c1ccccc1-c1ccc(C(F)(F)F)cc1 [Example 49, 4′-Trifluoromethyl-biphenyl-2-carboxylic acid [4-(4-(3-nitro-benzyl)-piperazin-1-yl)-phenyl]-amide] | 152 to 154
NC(=O)c1cccc(CN2CCN(c3ccc(NC(=O)c4ccccc4-c4ccc(C(F)(F)F)cc4)cc3)CC2)c1 [Example 50, 4′-Trifluoromethyl-biphenyl-2-carboxylic acid {4-[4-(3-carbamoyl-benzyl)-piperazin-1-yl]-phenyl}-amide] | 199 to 201

Results, then the molecule that gave them:

melting point [°C] | Molecule
198 to 200 | O=C(Nc1ccc(N2CCN(Cc3ccc(F)cc3)CC2)cc1)c1ccccc1-c1ccc(C(F)(F)F)cc1 [Example 52, 4′-Trifluoromethyl-biphenyl-2-carboxylic acid [4-[4-(4-fluoro-benzyl)-piperazin-1-yl]-phenyl]-amide]
190 to 192 | COC(=O)c1cccc(CN2CCN(c3ccc(NC(=O)c4ccccc4-c4ccc(C(F)(F)F)cc4)cc3)CC2)c1 [Example 55, 4′-Trifluoromethyl-biphenyl-2-carboxylic acid [4-[4-(3-carbomethoxy-benzyl)-piperazin-1-yl]-phenyl]-amide]
183 to 185 | O=C(Nc1ccc(N2CCN(Cc3cnccn3)CC2)cc1)c1ccccc1-c1ccc(C(F)(F)F)cc1 [Example 58, 4′-Trifluoromethyl-biphenyl-2-carboxylic acid [4-(4-pyrazin-2-ylmethyl-piperazin-1-yl)-phenyl]-amide]
118 to 120 | Cn1ccnc1CN1CCN(c2ccc(NC(=O)c3ccccc3-c3ccc(C(F)(F)F)cc3)cc2)CC1 [Example 60, 4′-Trifluoromethyl-biphenyl-2-carboxylic acid [4-[4-(1-methyl-1H-imidazol-2-ylmethyl)-piperazin-1-yl)-phenyl]-amide]
207 to 209 | CCCN1CCN(c2ccc(NC(=O)c3ccccc3-c3ccc(C(F)(F)F)cc3)cc2)CC1 [Example 65, 4′-Trifluoromethyl-biphenyl-2-carboxylic acid [4-(4-propyl-piperazin-1-yl)-phenyl]-amide]
181 to 183 | CC(=O)c1cccc(CN2CCN(c3ccc(NC(=O)c4ccccc4-c4ccc(C(F)(F)F)cc4)cc3)CC2)c1 [Example 66, 4′-Trifluoromethyl-biphenyl-2-carboxylic acid [4-(4-(3-acetyl-benzyl)-piperazin-1-yl)-phenyl]-amide]
173 to 175 | O=C(Nc1ccc(N2CCN(Cc3ccco3)CC2)cc1)c1ccccc1-c1ccc(C(F)(F)F)cc1 [Example 67, 4′-Trifluoromethyl-biphenyl-2-carboxylic acid [4-(4-furan-2-ylmethyl-piperazin-1-yl)-phenyl]-amide]
195 to 197 | COc1cccc(C(=O)Nc2ccc(N3CCN(Cc4ccc[nH]4)CC3)cc2)c1-c1ccc(C(C)C)cc1 [Example 68, 4′-Isopropyl-6-methoxy-biphenyl-2-carboxylic acid [4-(4-(1H-pyrrol-2-ylmethyl)-piperazin-1-yl)-phenyl]-amide]
181 to 183 | O=C(Nc1ccc(N2CCN(Cc3cccs3)CC2)cc1)c1ccccc1-c1ccc(C(F)(F)F)cc1 [Example 70, 4′-Trifluoromethyl-biphenyl-2-carboxylic acid [4-(4-thiophen-2-ylmethyl-piperazin-1-yl)-phenyl]-amide]
194 to 196 | O=C(Nc1ccc(N2CCN(Cc3cc[nH]n3)CC2)cc1)c1ccccc1-c1ccc(C(F)(F)F)cc1 [Example 71, 4′-Trifluoromethyl-biphenyl-2-carboxylic acid {4-[4-(1H-pyrazole-3-ylmethyl)-piperazine-1-yl)-phenyl}-amide]
187 to 189 | O=C(Nc1ccc(N2CCN(Cc3ccsc3)CC2)cc1)c1ccccc1-c1ccc(C(F)(F)F)cc1 [Example 72, 4′-Trifluoromethyl-biphenyl-2-carboxylic acid [4-(4-thiophen-3-ylmethyl-piperazin-1-yl)-phenyl]-amide]
168 to 170 | O=C(Nc1ccc(N2CCN(Cc3c[nH]c4ccc(F)cc34)CC2)cc1)c1ccccc1-c1ccc(C(F)(F)F)cc1 [Example 73, 4′-Trifluoromethyl-biphenyl-2-carboxylic acid {4-[4-(5-fluoro-1H-indol-3-ylmethyl)-piperazin-1-yl]-phenyl}-amide]
180 to 182 | COc1cccc(C(=O)Nc2ccc(N3CCN(Cc4cccc(-c5nc(C)no5)c4)CC3)cc2)c1-c1ccc(C(C)C)cc1 [Example 74, 4′-Isopropyl-6-methoxy-biphenyl-2-carboxylic acid (4-(4-(3-(3-methyl-[1,2,4]oxadiazol-5-yl)-benzyl)-piperazine-1-yl)-phenyl)-amide]
188 to 190 | O=C(Nc1ccc(N2CCN(Cc3cccc(-c4noc(C(F)(F)F)n4)c3)CC2)cc1)c1ccccc1-c1ccc(C(F)(F)F)cc1 [Example 75, 4′-Trifluoromethyl-biphenyl-2-carboxylic acid (4-{4-[3-(5-trifluoromethyl-[1,2,4]oxadiazol-3-yl)-benzyl]-piperazin-1-yl}-phenyl)-amide]
174 | N#Cc1cccc(CN2CCN(c3ccc(NC(=O)c4ccccc4-n4cccc4)cc3)CC2)c1 [Example 85, N-{4-[4-(3-Cyano-benzyl)-piperazin-1-yl]-phenyl}-2-pyrrol-1-yl-benzamide]
169 to 171 | N#Cc1cccc(CN2CCN(c3ccc(NC(=O)c4ccccc4-c4ccccn4)cc3)CC2)c1 [Example 86, N-{4-[4-(3-Cyano-benzyl)-piperazin-1-yl]-phenyl}-2-pyridin-2-yl-benzamide]

Biological target: human MTP (Homo sapiens, UniProt P55157)
Sequence (P55157 19-894): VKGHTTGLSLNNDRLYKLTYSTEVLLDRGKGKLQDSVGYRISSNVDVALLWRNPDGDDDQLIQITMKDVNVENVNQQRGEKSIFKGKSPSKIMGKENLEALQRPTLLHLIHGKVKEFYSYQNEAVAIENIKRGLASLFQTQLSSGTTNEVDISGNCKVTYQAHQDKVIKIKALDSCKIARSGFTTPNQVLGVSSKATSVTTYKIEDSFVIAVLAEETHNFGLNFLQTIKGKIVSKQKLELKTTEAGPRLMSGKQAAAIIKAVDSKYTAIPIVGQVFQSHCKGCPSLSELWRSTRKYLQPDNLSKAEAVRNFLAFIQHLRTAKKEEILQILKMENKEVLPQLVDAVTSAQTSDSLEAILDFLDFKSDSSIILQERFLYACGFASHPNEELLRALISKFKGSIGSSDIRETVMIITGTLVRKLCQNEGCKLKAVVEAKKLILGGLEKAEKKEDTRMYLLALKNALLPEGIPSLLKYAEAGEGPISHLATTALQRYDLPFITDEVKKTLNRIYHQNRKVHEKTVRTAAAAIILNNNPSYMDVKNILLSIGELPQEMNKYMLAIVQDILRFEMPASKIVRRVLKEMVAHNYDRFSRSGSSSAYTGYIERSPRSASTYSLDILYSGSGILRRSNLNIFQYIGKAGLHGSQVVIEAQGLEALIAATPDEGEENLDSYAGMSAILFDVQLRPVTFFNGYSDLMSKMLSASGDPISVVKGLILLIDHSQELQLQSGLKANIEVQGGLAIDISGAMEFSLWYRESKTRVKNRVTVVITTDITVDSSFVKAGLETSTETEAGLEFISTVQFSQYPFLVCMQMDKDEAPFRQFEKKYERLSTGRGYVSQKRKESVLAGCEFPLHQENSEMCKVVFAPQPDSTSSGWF
Sequence (P07237 18-508 partner): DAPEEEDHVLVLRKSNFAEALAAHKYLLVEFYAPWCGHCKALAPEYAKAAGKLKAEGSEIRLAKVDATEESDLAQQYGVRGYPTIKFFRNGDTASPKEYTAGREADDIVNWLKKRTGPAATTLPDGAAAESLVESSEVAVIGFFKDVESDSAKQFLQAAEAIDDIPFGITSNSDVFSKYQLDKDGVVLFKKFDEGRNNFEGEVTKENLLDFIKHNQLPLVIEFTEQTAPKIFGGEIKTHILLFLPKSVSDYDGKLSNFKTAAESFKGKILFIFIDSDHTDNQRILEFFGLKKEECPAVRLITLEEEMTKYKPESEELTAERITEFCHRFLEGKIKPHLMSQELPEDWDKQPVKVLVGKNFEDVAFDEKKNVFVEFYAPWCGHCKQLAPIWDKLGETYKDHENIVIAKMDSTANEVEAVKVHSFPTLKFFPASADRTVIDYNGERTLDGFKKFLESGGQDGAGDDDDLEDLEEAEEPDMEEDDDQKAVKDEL
Test: human MTP activity assay (SPA, 3H-triolein transfer between liposomes)
Assay type: biochemical
Conditions: human MTP-mediated 3H-triolein transfer from donor to acceptor liposomes, 25 min incubation at 37° C., streptavidin-SPA beads
Excerpt: Such derivatives are clear to those skilled in the art, without undue experimentation, and with reference to the teaching of Burger's Medicinal Chemistry And Drug Discovery, 5th Edition, Vol 1: Principles And Practice, which is incorporated herein by reference. […] MTP inhibitors may be used in the treatment of non-insulin dependent diabetes mellitus, insulin resistance, coronary heart disease, prevention of stroke, pancreatitis, hypercholesterolemia, hypertriglyceridemia, hyperlipemia, mixed dyslipidemia, post-prandial hyperlipemia, atherosclerosis and obesity. The ability of the compounds of this invention to inhibit human MTP activity is measured by an in vitro assay where MTP transfers 3H-triolein between phosphatidylcholine liposomes. The specificity of the compounds of the invention is established by comparing the effects on apoB-100 and apoprotein A-1 production. A specificity of at least 100 is preferred.
The human MTP activity assay was established using SPA technology. Donor liposomes were prepared with 3H-triolein and phosphatidylcholine, while acceptor liposomes contained biotinylated phosphatidylethanolamine and phosphatidylcholine. The MTP-mediated 3H-triolein transfer onto acceptor liposomes was allowed by a 25 min incubation at 37° C., and quantified by the addition of streptavidin-SPA beads.

Molecule | pIC50
5-Methyl-4′-trifluoromethyl-biphenyl-2-carboxylic acid [-(4-(1H-pyrrol-2-ylmethyl)-piperazin-1-yl)-phenyl]-amide [Example 64] | 9.59
Cc1ccc(C(=O)Nc2ccc(N3CCN(Cc4cccc(C#N)c4)CC3)cc2)c(-c2ccc(C(C)C)cc2)c1 [Example 2, 4′-Isopropyl-5-methyl-biphenyl-2-carboxylic acid [4-[4-(3-cyano-benzyl)-piperazin-1-yl]-phenyl]-amide] | 9.52
COc1cccc(C(=O)Nc2ccc(N3CCN(Cc4cccc(C#N)c4)CC3)cc2)c1-c1ccc(C(C)C)cc1 [Example 3, 4′-Isopropyl-6-methoxy-biphenyl-2-carboxylic acid [4-[4-(3-cyano-benzyl)-piperazin-1-yl]-phenyl]-amide] | 9.70
Cc1cccc(C(=O)Nc2ccc(N3CCN(Cc4cccc(C#N)c4)CC3)cc2)c1-c1ccc(C(C)C)cc1 [Example 4, 4′-Isopropyl-6-methyl-biphenyl-2-carboxylic acid [4-[4-(3-cyano-benzyl)-piperazin-1-yl]-phenyl]-amide] | 9.70
Cc1cccc(C(=O)Nc2ccc(N3CCN(Cc4cccc(C#N)c4)CC3)cc2)c1-c1ccc(C(F)(F)F)cc1 [Example 5, 6-Methyl-4′-trifluoromethyl-biphenyl-2-carboxylic acid [4-[4-(3-cyano-benzyl)-piperazin-1-yl]-phenyl]-amide] | 9.70
Cc1ccc(C(=O)Nc2ccc(N3CCN(Cc4cccc(-c5nc(C)no5)c4)CC3)cc2)c(-c2ccc(C(C)C)cc2)c1 [Example 6] | 9.52
NC(=O)CN1CCN(c2ccc(NC(=O)c3ccccc3-c3ccc(C(F)(F)F)cc3)cc2)CC1 [Example 37, 4′-Trifluoromethyl-biphenyl-2-carboxylic acid [4-(4-carbamoylmethyl-piperazin-1-yl)-phenyl]-amide] | 8.10
COc1cccc(C(=O)Nc2ccc(N3CCN(CC(N)=O)CC3)cc2)c1-c1ccc(C(C)C)cc1 [Example 38, 4′-Isopropyl-6-methoxy-biphenyl-2-carboxylic acid [4-(4-carbamoylmethyl-piperazin-1-yl)-phenyl]-amide] | 9.52
Cc1cccc(C(=O)Nc2ccc(N3CCN(CC(N)=O)CC3)cc2)c1-c1ccc(C(C)C)cc1 [Example 39, 4′-Isopropyl-6-methyl-biphenyl-2-carboxylic acid (4-(4-carbamoylmethyl-piperazin-1-yl)-phenyl]-amide] | 9.52

The next lines start with the values.

pIC50 | Molecule
9.70 | Cc1noc(-c2cccc(CN3CCN(c4ccc(NC(=O)c5cccc(C)c5-c5ccc(C(C)C)cc5)cc4)CC3)c2)n1 [Example 61, 4′-Isopropyl-6-methyl-biphenyl-2-carboxylic acid (4-(4-(3-(3-methyl-[1,2,4]oxadiazol-5-yl)-benzyl)-piperazine-1-yl)-phenyl)-amide]
9.52 | O=C(Nc1ccc(N2CCN(Cc3ccc[nH]3)CC2)cc1)c1ccccc1-c1ccc(C(F)(F)F)cc1 [Example 62, 4′-Trifluoromethyl-biphenyl-2-carboxylic acid [4-(4-(1H-pyrrol-2-ylmethyl)-piperazin-1-yl)-phenyl]-amide]
